Patent publication US20230030847A1, “ANTI-MICROBIAL SULFONAMIDE PHARMACEUTICAL COMPOSITIONS FOR EXTERNAL USE” (priority 2021, published 2023)

Key:
rats = assay: single-dose oral gavage toxicity in rats; format: in vivo; conditions: single gavage dose of liquid containing 20% BENZ, 5 g/kg body weight
Description: Five rats (Rattus norvegicus) weighing 244 to 272 grams were gavaged with a single dose of liquid containing 20% N-chloro-4-carboxybenzenesulfonamide (BENZ) at a dosage of 5 g/kg body weight.

skin of rabbits = assay: primary skin irritation according to ISO 10993-10, Part 10; format: in vivo, rabbit; conditions: abraded skin, gauze patches treated with 20% BENZ for 24 hours, observed 1, 24, 48 and 72 hours after patch removal
Method: Next, three rabbits were used for evaluation of primary skin irritation according to ISO 10993-10, Part 10. Two wet gauze patches (25 mm×25 mm) treated with 20% BENZ were applied to the skin of each rabbit in different locations. Each application site was abraded with four parallel epidermal abrasions prior to application of the treated gauze patch. The treated gauze was secured in place for 24 hours, then removed. The skin was then observed for erythema and edema at 1, 24, 48, and 72 hours after patch removal.

skin of guinea pigs = conditions: guinea pig, in vivo
Method: Next, 10 guinea pigs were used to test for delayed dermal contact sensitization according to ISO 10993-10, Part 10. A wet gauze patch (25 mm×25 mm) treated with 20% BENZ was applied to the intact skin of each guinea pick for six hours (±30 minutes), three times a week, over a three-week period for a total of nine applications. After a two-week recovery period, the gauze patch was applied again. The skin was then observed for evidence of dermal reaction at 24 and 48 hours after patch removal. […] This test was performed a total of three times with different guinea pigs, and the same results were obtained each time.

bovine corneas = assay: bovine corneal opacity and permeability (BCOP) test for ocular irritation; conditions: 0.75 mL of 20% BENZ solution, 10 minutes exposure, three bovine corneas
Method: A bovine corneal opacity and permeability (BCOP) test was performed to determine the potential for ocular irritation.
Each dissected cornea was mounted in a holder that separated into anterior and posterior chambers. The two chambers were filled with a MEM solution, and an opacitometer was used to measure the opacity of the cornea. Next, the MEM solution was removed from the anterior chamber, and the epithelium of three bovine corneas were exposed to 0.75 mL of a 20% BENZ solution for 10 minutes in a manner that covered the entire cornea. The two chambers were then rinsed and refilled with fresh MEM solution. The corneas were then incubated at 32° C. for two hours, and the two chambers were again rinsed and refilled with fresh MEM solution. The opacity was measured again. The MEM solution was then removed from the anterior chamber and the anterior chamber was filled with 1.0 mL of 0.4% sodium fluorescein in Dulbecco's phosphate-buffered saline. After 90 minutes, the fluid in the posterior chamber was removed and the amount of dye that passed through the cornea was measured as the optical density at 490 nm by spectrophotometer. The In Vitro Irritancy Score (IVIS) was calculated to be −0.67, which is a perfect score.

Aspergillus brasiliensis = assay: impregnated test swatch kill test; format: cell-based; conditions: swatches impregnated with 2.5% BENZ; within 1 hour
Method: (§1) Test swatches which had been impregnated with 2.5% BENZ were exposed to Staphylococcus aureus, Pseudomonas aeruginosa, and Aspergillus brasiliensis. A stack of two swatches was placed in a petri dish and then inoculated with 1.000 mL of an inoculum for one of the microorganisms. Following inoculation, the petri dishes were sealed and placed in a plastic bag/container, then incubated at optimal conditions for the given microorganism. Swatches were harvested at 0, 10 minutes, 30 minutes, 1 hour, and 6 hours after inoculation. At harvesting, the swatch was transferred to a neutralization media, then vortex mixed for 1-2 minutes. The neutralization suspension was […] and plated for 18-24 hours for bacteria and 24-72 hours for fungi at optimal incubation conditions.

Pseudomonas aeruginosa = assay: impregnated test swatch kill test; format: cell-based; conditions: swatches impregnated with 2.5% BENZ; within 10 minutes
Method: as §1

Staphylococcus aureus = assay: impregnated test swatch kill test; format: cell-based; conditions: swatches impregnated with 2.5% BENZ; within 30 minutes
Method: as §1

Candida auris = assay: impregnated test swatch kill test; format: cell-based; conditions: stack of four swatches impregnated with 2.5% BENZ; within 1 hour
[1] = system: Rhinovirus 37, 151-1 strain, ATCC VR-1607; assay: impregnated filter medium virucidal test (TCID50 in MRC-5 cells); format: cell-based; conditions: filter medium impregnated with 2.5% BENZ; contact time 30 minutes, 24.7-24.9° C., 39.9-40.5% relative humidity
Method: Next, a filter medium impregnated with 2.5% BENZ was exposed to a 0.200 mL volume of Rhinovirus 37, 151-1 strain, ATCC VR-1607 for a contact time of 30 minutes at 24.7-24.9° C. and 39.9-40.5% relative humidity. After 30 minutes, the filter medium was transferred to a neutralization medium and vortexed for at least 15 seconds. A 0.1 mL aliquot was removed and a series of 10-fold dilutions was performed in 0.9 mL aliquots of test medium. Each dilution was inoculated into MRC-5 cells. Viral titer was then calculated.

[2] = system: Influenza A virus, A/PR/8/34 strain, ATCC VR-1469; format: cell-based; conditions: filter medium impregnated with 2.5% BENZ; similar experiment (contact time 30 minutes)
[3] = stability study of BENZ solution; format: physicochemical
Method: A stability study was conducted. A BENZ solution was stored for 14 days at 54° C. At Day 0, the samples contained an average of 20.26% BENZ. At Day 14, the samples contained an average of 19.97% BENZ.

## O=C(O)c1ccc(S(=O)(=O)NCl)cc1 [BENZ, N-chloro-4-carboxybenzenesulfonamide]
rats
  survival after seven days: all five rats were still alive
Skin of rabbits
  erythema and edema: no erythema or edema observed
Skin of guinea pigs
  delayed dermal contact sensitization: No evidence was found of delayed dermal contact sensitization
Bovine corneas
  In Vitro Irritancy Score (IVIS): −0.67
Aspergillus brasiliensis
  kill: 99.9%
Pseudomonas aeruginosa
  kill: 99.999%
Staphylococcus aureus
  kill: 99.999%
Candida auris
  kill: 99.998%
[1]
  reduction in viral titer: > 99.997%
[2]
  reduction in viral titer: > 100%
[3]; Day 0, BENZ solution
  average BENZ content of samples: 20.26%
[3]; Day 14, stored at 54° C.
  average BENZ content of samples: 19.97%
